Values joined by “and” are separate entries in the source; they are usually repeats but may differ in a detail not shown here. Equal values may be shown once.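 Briefly, cells in 96-well plates were exposed to five compound concentrations for 48 h, and endpoints were estimated by linear interpolation. At the GI50, growth is halved. TGI: concentration producing complete growth inhibition.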

Test systems include MCF7 breast; CAKI-1 renal; TK-10 renal; HS 578T breast; SF-539 CNS; SK-MEL-28 melanoma; MDA-MB-231 breast; K-562 leukemia; SF-295 CNS; CCRF-CEM leukemia.
Common to all, as to assay: NCI-60 cell line screen, 48 h

Take `CC1=CC2(C)/C=C(C)/C=C\CC(O)/C=C3/C=CC(=C4C(=O)OC2(CC1C)C4=O)OC3` (centres undefined): the GI50 in the assay with MCF7 breast was 2.11 µM; with CAKI-1 renal it was 1.65 µM; in the assay on TK-10 renal, 1.54 µM; with HS 578T breast, 2.25 µM; with SF-539 CNS, 2.49 µM; in the assay on SK-MEL-28 melanoma, 1.6 µM. Besides, the GI50 in the assay on MDA-MB-231 breast is 1.99 µM; in the assay with K-562 leukemia, 1.2 µM; with SF-295 CNS it was 8.31 µM; with CCRF-CEM leukemia it was 0.673 µM. Besides, the TGI in the assay with MCF7 breast was found to be 20.7 µM; in the assay with CAKI-1 renal it was 3.63 µM; in the assay on TK-10 renal, 3.46 µM; in the assay on HS 578T breast it was 6.97 µM; with SF-539 CNS, 6.72 µM; in the assay with SK-MEL-28 melanoma, 3.33 µM. The TGI is 4.25 µM in the assay on MDA-MB-231 breast, greater than 100 µM in the assay with K-562 leukemia, 32 µM in the assay with SF-295 CNS and 7.95 µM with CCRF-CEM leukemia.
On to `CC1(C)OCC2OC(n3cnc4c(N)nc(Cl)nc43)C(OS(C)(=O)=O)C2O1` (centres undefined), for which the TGI in the assay with MCF7 breast, with CAKI-1 renal, with TK-10 renal, in the assay on HS 578T breast, in the assay on SF-539 CNS and in the assay on SK-MEL-28 melanoma was greater than 100 µM in each case. For the same molecule, the TGI in the assay on MDA-MB-231 breast, in the assay with K-562 leukemia, in the assay with SF-295 CNS and in the assay with CCRF-CEM leukemia was greater than 100 µM each time.
`Cc1c(C(=O)Nc2ccc(N3C[C@@H](C)O[C@@H](C)C3)nc2)cccc1-c1ccc(OC(F)(F)F)cc1`: the GI50 in the assay with MCF7 breast is 8.25 µM and 15.4 µM; in the assay with CAKI-1 renal, 3.86 µM and 3.89 µM; in the assay with TK-10 renal it was 5.48 µM and 9.98 µM; with HS 578T breast, 9.09 µM and 14.1 µM; in the assay on SF-539 CNS, 6.74 µM and 10.5 µM; in the assay with SK-MEL-28 melanoma it was 12.9 µM and 16.8 µM. Also, the GI50 is 5.91 µM and 11.8 µM in the assay with MDA-MB-231 breast; 3.44 µM and 3.16 µM in the assay on K-562 leukemia; 5.34 µM and 3.84 µM in the assay on SF-295 CNS; 9.77 µM and 50 µM in the assay on CCRF-CEM leukemia. Besides, the TGI is 31 µM and 49 µM in the assay on MCF7 breast; 26.3 µM and 23.3 µM with CAKI-1 renal; 21.2 µM and 30.3 µM with TK-10 renal; 49.3 µM and 43.8 µM with HS 578T breast; 22 µM and 27.3 µM in the assay on SF-539 CNS; 33.6 µM and 40.1 µM in the assay on SK-MEL-28 melanoma. Further, the TGI was 21.4 µM and 31.3 µM in the assay with MDA-MB-231 breast; greater than 100 µM with K-562 leukemia; 26.5 µM and 26.1 µM with SF-295 CNS; greater than 100 µM in the assay with CCRF-CEM leukemia.
`C=C1C(=O)O[C@@H]2/C=C(/C)[C@@H](OC(C)=O)C[C@@H](O)/C(C)=C\[C@@H](OC(=O)[C@]3(C)O[C@@H]3C)[C@@H]12`: the TGI with MCF7 breast was 18.1 µM; in the assay with CAKI-1 renal it was 11.1 µM; in the assay with TK-10 renal, 29.5 µM; in the assay with HS 578T breast, greater than 100 µM; in the assay on SF-539 CNS, 46.5 µM; with SK-MEL-28 melanoma, 23.2 µM. Further, the TGI in the assay with MDA-MB-231 breast is 29.9 µM; in the assay on K-562 leukemia it was 17.5 µM; in the assay with SF-295 CNS it was greater than 100 µM; in the assay with CCRF-CEM leukemia, 11.7 µM.
Regarding `COc1cc2[nH]c3c(c2cc1OC)CCN[C@@]31CC[C@@]2(CC3c4c(cc(OC)c(O)c42)CCN3C)C[C@@H]1OC` (some centres undefined), the TGI is greater than 100 µM in the assay on MCF7 breast; greater than 79.5 µM in the assay on CAKI-1 renal; 84.5 µM with TK-10 renal; greater than 52.5 µM in the assay on HS 578T breast; 28.4 µM with SF-539 CNS; 33.5 µM in the assay with SK-MEL-28 melanoma. In addition, the TGI in the assay with MDA-MB-231 breast is greater than 100 µM; with K-562 leukemia, 56.5 µM; in the assay with SF-295 CNS it was 47.3 µM; in the assay with CCRF-CEM leukemia, 94.5 µM.
Turning to `Cc1nnc(N/N=C/c2ccc([N+](=O)[O-])o2)[nH]c1=O`, the GI50 with MCF7 breast is 1.24 µM; with CAKI-1 renal, 1.79 µM; in the assay with TK-10 renal, 1.03 µM; with HS 578T breast, 0.425 µM; with SF-539 CNS, 0.447 µM; in the assay with SK-MEL-28 melanoma, 0.815 µM. Also, the GI50 in the assay on MDA-MB-231 breast was 1.26 µM; in the assay on K-562 leukemia it was 0.796 µM; with SF-295 CNS, 1.93 µM; in the assay with CCRF-CEM leukemia, 0.441 µM. The TGI was greater than 100 µM with MCF7 breast; greater than 100 µM in the assay on CAKI-1 renal; greater than 25 µM in the assay on TK-10 renal; 40.8 µM in the assay with HS 578T breast; greater than 51.6 µM with SF-539 CNS; greater than 100 µM with SK-MEL-28 melanoma. The TGI with MDA-MB-231 breast was greater than 24.5 µM; with K-562 leukemia, greater than 100 µM; in the assay with SF-295 CNS, greater than 100 µM.
As to `CCN(CC)CCOc1nc2ccccc2c2c1-c1ccc(OC)cc1C2=O`, the GI50 in the assay with MCF7 breast was 0.345 µM; with CAKI-1 renal, 0.486 µM; in the assay with TK-10 renal, 1.85 µM; with HS 578T breast, 1.19 µM; with SF-539 CNS it was 1.34 µM; in the assay with SK-MEL-28 melanoma, 1.63 µM. Besides, the GI50 is 1.4 µM in the assay on MDA-MB-231 breast, 0.276 µM in the assay with K-562 leukemia, 1.91 µM in the assay on SF-295 CNS and 0.267 µM with CCRF-CEM leukemia. The TGI in the assay on MCF7 breast was 2.23 µM; in the assay with CAKI-1 renal, 3.66 µM; with TK-10 renal, 12.6 µM; with HS 578T breast, 5.78 µM; in the assay with SF-539 CNS it was 4.25 µM; in the assay on SK-MEL-28 melanoma it was 3.29 µM. Besides, the TGI in the assay with MDA-MB-231 breast came out at 6.22 µM; with K-562 leukemia, 1.19 µM; in the assay on SF-295 CNS, 12.4 µM; in the assay with CCRF-CEM leukemia, 2.23 µM.
With `Cn1nc(C(F)(F)F)cc1-c1cc(Cl)c(OCc2ccc(Cl)cc2)c(-c2ccc(Cl)c(C(F)(F)F)c2)c1O`, the GI50 in the assay on MCF7 breast is 1.01 µM; in the assay with CAKI-1 renal, 1.11 µM; in the assay on TK-10 renal, 1.66 µM; in the assay on HS 578T breast it was 0.975 µM; with SF-539 CNS, 1.07 µM; with SK-MEL-28 melanoma, 1.14 µM. Further, the GI50 in the assay with MDA-MB-231 breast is 0.958 µM; with K-562 leukemia, 0.312 µM; with SF-295 CNS, 0.997 µM; in the assay on CCRF-CEM leukemia, 0.821 µM. Besides, the TGI in the assay on MCF7 breast was 5.33 µM; in the assay on CAKI-1 renal, 3.49 µM; in the assay with TK-10 renal it was 5.56 µM; in the assay with HS 578T breast, 2.92 µM; in the assay with SF-539 CNS, 3.26 µM; with SK-MEL-28 melanoma, 3.53 µM. Further, the TGI was found to be 2.43 µM with MDA-MB-231 breast, 5.08 µM in the assay on K-562 leukemia, 2.55 µM in the assay on SF-295 CNS and 19.6 µM in the assay with CCRF-CEM leukemia.
As to `CN(C(=O)C(C)(C)C)c1ccccc1I(=O)=O`, the GI50 is greater than 100 µM with MCF7 breast; greater than 100 µM in the assay with CAKI-1 renal; greater than 100 µM with TK-10 renal; greater than 100 µM in the assay with HS 578T breast; greater than 100 µM in the assay with SF-539 CNS; 92.5 µM in the assay on SK-MEL-28 melanoma. Further, the GI50 in the assay on MDA-MB-231 breast was greater than 100 µM; with K-562 leukemia it was 14.1 µM; in the assay with SF-295 CNS, greater than 100 µM; in the assay on CCRF-CEM leukemia it was 8.62 µM. The TGI in the assay with MCF7 breast, in the assay with CAKI-1 renal, with TK-10 renal, in the assay on HS 578T breast, with SF-539 CNS and in the assay with SK-MEL-28 melanoma was greater than 100 µM throughout. The TGI with MDA-MB-231 breast is greater than 100 µM; with K-562 leukemia, 35.5 µM; with SF-295 CNS it was greater than 100 µM; with CCRF-CEM leukemia it was 31.6 µM.

Source of the values: PubChem BioAssay (NCI).
